# Source: patent US11292781B2, “Pyrimidine tricyclic enone derivatives for inhibition of ROR-gamma and other uses” (REATA PHARMACEUTICALS, INC., priority 2016, dated 2022)
# How the values were obtained:
# [1] = test system: Nrf2 transcription factor (GST ARE luciferase reporter in AREc32 cells); assay: AREc32 luciferase reporter assay; type: cell-based, human; details: EC2×: concentration required to increase GST ARE luciferase reporter activity by 2-fold, 19 hours
# Source text: A. AREc32 Luciferase Reporter Assay The AREc32 luciferase reporter assay allows for quantitative assessment of the endogenous activity of the Nrf2 transcription factor in cultured mammalian cells. AREc32 cells are derived from MCF-7 human breast carcinoma cells that were stably transfected with a reporter construct that contains the firefly luciferase gene located downstream of eight copies of the rat GSTA2 antioxidant response element (ARE) sequence (Wang et al., 2006; CXR Biosciences). Active NRF2 binds to the ARE sequences and increases expression of the firefly luciferase gene. […] Luciferase activity was determined using the ONE-Glo Luciferase assay (Promega). The luminescence signal was measured on a BMG Pherastar microplate reader. The mean luminescence value from test compound-treated wells was normalized to that from DMSO-treated wells and was represented as fold-induction. Data were analyzed using GraphPad Prism version 6.00 for Windows, GraphPad Software, La Jolla Calif. USA. A non-linear regression curve with log (agonist) vs. response using a variable slope was used to fit the data. […] EC2× values were interpolated from the curve.
# [2] = test system: IL-17A levels in primary human CD4+ T cells differentiated into Th17 cells; assay: IL-17 release from differentiated primary human T-cells (IL-17A HTRF); type: cell-based; details: primary human CD4+ T cells, Th17 differentiation, 46-hour incubation; read-out: hIL17 IC50
# Procedure: C. IL-17 Release from Differentiated Primary Human T-Cells and Cell Viability Primary human cryopreserved CD4+ T Cells (Lonza, donor #0000402103) were plated in Lymphocyte Growth Medium-3 (LGM-3, Lonza) according to the manufacturer's recommendations, and allowed to recover for approximately 3 hours at 37° C. with 5% CO2 in a humidified atmosphere. […] Triplicate wells were plated for each test condition. DMSO (final concentration ≤0.1%) was used as the vehicle. Immediately after plating, CD4+ T cells were activated by adding Dynabeads Human T-Activator CD3/CD28 (Life Technologies; bead-to-cell ratio of 1:2.5) and differentiated into Th17 cells by adding a mixture of the following cytokines: transforming growth factor-β (TGF-β, 5 ng/mL), IL-6 (20 ng/mL), IL-23 (20 ng/mL), and […] (10 ng/mL). Undifferentiated control cells received only cytokine IL-2 (50 ng/mL). All human recombinant cytokines were purchased from R&D Systems. Following a 46-hour incubation at 37° C. with 5% CO2 in a humidified atmosphere, the plates were centrifuged for 3 minutes at 250×g, and half of the supernatant was transferred to a new plate to be used in the IL-17A assay (see below). Cell viability was assessed in the original plate using the CyQuant Direct Assay (Life Technologies). CyQuant values from test compound samples were normalized to those from DMSO-treated samples. The concentration of IL-17A in the supernatant was measured using the Homogeneous Time-Resolved Fluorescence (HTRF) assay (Cisbio Bioassays) according to the manufacturer's protocol. The assay was performed at room temperature in low volume, solid white 384-well plates (Greiner Bio-One). […] A non-linear regression analysis with log (inhibitor) vs. normalized response using a variable slope was applied to fit the data and determine the IC50 values for inhibition of IL-17A levels and cell viability.
IC50 [2] [nM],Structure (SMILES),HRF2 ARE 2× [1] [nM]
60,CC(=O)Nc1cc(-c2nc(-c3ccccc3F)c3c(n2)[C@]2(C)C=C(C#N)C(=O)[C@H](C)[C@H]2CC3)ccn1 [T61],461
181,CC(=O)N1CCC=C(c2nc(-c3ccccc3)c3c(n2)[C@]2(C)C=C(C#N)C(=O)[C@H](C)[C@H]2CC3)C1 [T49],491
46,C[C@H]1C(=O)C(C#N)=C[C@@]2(C)c3nc(-c4ncnc5ccccc45)nc(-c4ccc(F)cc4)c3CC[C@H]12 [T114],484
68,C[C@H]1C(=O)C(C#N)=C[C@@]2(C)c3nc(-c4ccnc5ccccc45)nc(-c4ccccc4)c3CC[C@H]12 [T32],272
58,C[C@H]1C(=O)C(C#N)=C[C@@]2(C)c3nc(-c4ccnc5ccccc45)nc(OC4CCC4)c3CC[C@H]12 [T94],321
21,C[C@H]1C(=O)C(C#N)=C[C@@]2(C)c3nc(-c4ccncc4C4CC4)nc(-c4ccccc4F)c3CC[C@H]12 [T180],494
54,CCOC(=O)CCc1cc(-c2nc(-c3ccccc3F)c3c(n2)[C@]2(C)C=C(C#N)C(=O)[C@H](C)[C@H]2CC3)ccn1 [T151],1111
58,C[C@H]1C(=O)C(C#N)=C[C@@]2(C)c3nc(-c4ccnc5ccccc45)nc(OC4CCCCC4)c3CC[C@H]12 [T96],492
36,C[C@H]1C(=O)C(C#N)=C[C@@]2(C)c3nc(-c4ccnc5c(F)cccc45)nc(OC4CCCC4)c3CC[C@H]12 [T121],390
38,C[C@H]1C(=O)C(C#N)=C[C@@]2(C)c3nc(-c4ccnc5ccccc45)nc(-c4cc5ccccc5o4)c3CC[C@H]12 [T103],277
130,CC(=O)NCCc1cc(-c2nc(-c3ccccc3F)c3c(n2)[C@]2(C)C=C(C#N)C(=O)[C@H](C)[C@H]2CC3)ccn1 [T178],444
23,C[C@]1(CC2CC2)C(=O)C(C#N)=C[C@@]2(C)c3nc(-c4ccnc5ccccc45)nc(-c4ccccc4F)c3CC[C@H]12 [T157],304
590,Cc1cnccc1-c1nc(-c2ccccc2F)c2c(n1)[C@]1(C)CC(C#N)=C(O)[C@H](C)[C@H]1CC2 [T55],>2000
40,COc1cc(-c2nc(-c3ccccc3)c3c(n2)[C@]2(C)C=C(C#N)C(=O)[C@H](C)[C@H]2CC3)ccn1 [T33],480
69,Cc1cncc(-c2nc(-c3ccccc3F)c3c(n2)[C@]2(C)C=C(C#N)C(=O)[C@H](C)[C@H]2CC3)c1 [T58],155
21,Cc1cc(-c2nc(-c3ccccc3F)c3c(n2)[C@]2(C)C=C(C#N)C(=O)[C@H](C)[C@H]2CC3)c2cccc(F)c2n1 [T63],259
52,CCS(=O)(=O)CCc1cc(-c2nc(-c3ccccc3F)c3c(n2)[C@]2(C)C=C(C#N)C(=O)[C@H](C)[C@H]2CC3)ccn1 [T153],282
33,C[C@H]1C(=O)C(C#N)=C[C@@]2(C)c3nc(-c4ccnc(C5CC5)c4)nc(-c4ccccc4F)c3CC[C@H]12 [T53],380
19,Cc1cc(-c2nc(OC3CCCC3)c3c(n2)[C@]2(C)C=C(C#N)C(=O)[C@H](C)[C@H]2CC3)c2ccccc2n1 [T111],317
18,Cc1cc(-c2nc(-c3ccc(F)cc3)c3c(n2)[C@]2(C)C=C(C#N)C(=O)[C@H](C)[C@H]2CC3)c2ccccc2n1 [T109],251
35,C[C@H]1C(=O)C(C#N)=C[C@@]2(C)c3nc(-c4ccnc(N5CCOCC5)c4)nc(-c4ccccc4F)c3CC[C@H]12 [T64],425
36,CC[C@@]1(C)C(=O)C(C#N)=C[C@@]2(C)c3nc(-c4ccnc5ccccc45)nc(-c4ccccc4F)c3CC[C@H]12 [T126],280

IC50 [2] [nM],Structure (SMILES),HRF2 ARE 2× [1] [nM]
39,C[C@H]1C(=O)C(C#N)=C[C@@]2(C)c3nc(-c4cncc5ccccc45)nc(-c4ccccc4F)c3CC[C@H]12 [T66],190
329,C[C@@H]1C(=O)C(C#N)=C[C@@]2(C)c3nc(-c4ccnc5ccccc45)nc(-c4ccccc4F)c3CC[C@@H]12 [T175],>2000
65,Cc1noc(-c2nc(-c3ccnc4ccccc34)nc3c2CC[C@@H]2[C@@H](C)C(=O)C(C#N)=C[C@@]32C)n1 [T105],292
42,C[C@H]1C(=O)C(C#N)=C[C@@]2(C)c3nc(-c4nccc5ccccc45)nc(-c4ccccc4F)c3CC[C@H]12 [T75],552
27,C[C@H]1C(=O)C(C#N)=C[C@@]2(C)c3nc(-c4ccncc4-c4ccccc4)nc(-c4ccccc4F)c3CC[C@H]12 [T179],649
65,CC(C)CC[C@@]12C=C(C#N)C(=O)C[C@H]1CCc1c(-c3ccccc3F)nc(-c3ccnc(CF)c3)nc12 [T165],863
109,Cc1noc(C)c1-c1nc(-c2ccccc2F)c2c(n1)[C@]1(C)C=C(C#N)C(=O)[C@H](C)[C@H]1CC2 [T87],245
101,C[C@H]1C(=O)C(C#N)=C[C@@]2(C)c3nc(-c4ccnc5ccccc45)nc(C4CC4)c3CC[C@H]12 [T93],283
37,Cc1cc(-c2nc(-c3ccccc3F)c3c(n2)[C@]2(C)C=C(C#N)C(=O)C(C)(C)[C@H]2CC3)c2ccccc2n1 [T119],351
54,CCC[C@@]12C=C(C#N)C(=O)C[C@H]1CCc1c(-c3ccccc3F)nc(-c3ccnc4ccccc34)nc12 [T156],333
64,CC(C)Oc1nc(-c2ccnc3ccccc23)nc2c1CC[C@@H]1[C@@H](C)C(=O)C(C#N)=C[C@@]21C [T41],528
22,C[C@H]1C(=O)C(C#N)=C[C@@]2(C)c3nc(-c4ccc(-c5ccccc5)nc4)nc(-c4ccccc4F)c3CC[C@H]12 [T141],557
77,C[C@H]1C(=O)C(C#N)=C[C@@]2(C)c3nc(-c4ccncc4F)nc(-c4ccccc4F)c3CC[C@H]12 [T57],419
32,CCC[C@H]1C(=O)C(C#N)=C[C@@]2(CCC)c3nc(-c4ccnc(C5CC5)c4)nc(-c4ccccc4F)c3CC[C@H]12 [T168],1239
225,C[C@H]1C(=O)C(C#N)=C[C@@]2(C)c3nc(C4=CCCNC4)nc(-c4ccccc4)c3CC[C@H]12.Cl [T48],460
48,C[C@H]1C(=O)C(C#N)=C[C@@]2(C)c3nc(-c4ncnc5ccccc45)nc(-c4cccc(F)c4)c3CC[C@H]12 [T113],734
14,C[C@H]1C(=O)C(C#N)=C[C@@]2(C)c3nc(-c4cc(CF)nc5ccccc45)nc(-c4ccccc4F)c3CC[C@H]12 [T115],260
22,CCC[C@H]1C(=O)C(C#N)=C[C@@]2(C)c3nc(-c4cccc5ncccc45)nc(-c4ccccc4F)c3CC[C@H]12 [T159],337
195,C[C@H]1C(=O)C(C#N)C[C@@]2(C)c3nc(-c4ccnc5ccccc45)nc(-c4ccccc4F)c3CC[C@H]12 (stereo partly shown) [T186],>2000
69,Cc1ccc2nccc(-c3nc(-c4ccccc4F)c4c(n3)[C@]3(C)C=C(C#N)C(=O)[C@H](C)[C@H]3CC4)c2c1 [T73],407
22,CC(C)c1cccc(-c2nc(-c3ccnc4ccccc34)nc3c2CC[C@@H]2[C@@H](C)C(=O)C(C#N)=C[C@@]32C)c1 [T160],418
65,C[C@H]1C(=O)C(C#N)=C[C@@]2(C)c3nc(-c4cc(C=O)nc5ccccc45)nc(-c4ccccc4F)c3CC[C@H]12 [T116],303
